Consider two molecules from patent publication US20040204342A1, “Orthodontic remedies containing” (CHUGAI SEIYAKU KABUSHIKI KAISHA, priority 1996, published 2004).

Holding throughout (format): in vivo, rat
Assay [1] relates to male Wister rats. The experiment in a line: Experimental tooth movement by closed coil spring (mesial shift of M1), local administration of sustained release dosage form. To be noted: 1 μg/400 g locally injected every 2 days (sustained release), FIG. 15. From the text:
There are two methods for experimental tooth movement, i.e., one wherein an elastic band (made of rubber) is inserted between teeth and another one wherein a closed coil spring for orthodontics is used. The closed coil spring employed herein is Sentalloy closed coil spring 509-21 (made of Ni—Ti, manufactured by Tomy International K.K.) which can give an almost constant traction force of about 30 g within a spring-elongation range of 2 to 3 mm. […] When the initial elongation of the spring is regulated within the above-mentioned range, therefore, a constant force can be applied regardless of orthodontic tooth movement. When a rubber substance is inserted between molars, an extremely large force is applied immediately after the insertion but scarcely any force is applied after the target tooth is shifted by 0.5 mm. Accordingly, either the method with the insertion of an elastic (rubber) band or another one with the use of a closed coil spring may be used in experimental tooth movement within a short period of time. When a tooth is to be shifted over a long time, however, it is appropriate to use the latter method wherein the first molar is mesially shifted by elongating a closed coil spring. The method with the insertion of an elastic (rubber) band was employed in Example 1, while another method with the use of a closed coil spring was employed in Example 2. […]

The subject of assay [2] is male Wister rats. The experiment in a line: Experimental tooth movement by closed coil spring (mesial shift of M1), systemic continuous infusion or intermittent injection. To be noted: for mesial shift of M1 compared with control group: day 3. An excerpt:
(§1) There are two methods for experimental tooth movement, i.e., one wherein an elastic band (made of rubber) is inserted between teeth and another one wherein a closed coil spring for orthodontics is used. The closed coil spring employed herein is Sentalloy closed coil spring 509-21 (made of Ni—Ti, manufactured by Tomy International K.K.) which can give an almost constant traction force of about 30 g within a spring-elongation range of 2 to 3 mm. […] When the initial elongation of the spring is regulated within the above-mentioned range, therefore, a constant force can be applied regardless of orthodontic tooth movement. When a rubber substance is inserted between molars, an extremely large force is applied immediately after the insertion but scarcely any force is applied after the target tooth is shifted by 0.5 mm. Accordingly, either the method with the insertion of an elastic (rubber) band or another one with the use of a closed coil spring may be used in experimental tooth movement within a short period of time. When a tooth is to be shifted over a long time, however, it is appropriate to use the latter method wherein the first molar is mesially shifted by elongating a closed coil spring. The method with the insertion of an elastic (rubber) band was employed in Example 1, while another method with the use of a closed coil spring was employed in Example 2.
(§2) It has been already clarified that the continuous administration of PTH and the intermittent administration thereof differ from each other in their effect on bones. Thus, attempts were made to examine how PTH administered by either method would affect the experimental tooth movement. Use was made of 12 male Wister rats weighing 350 to 400 g. In the continuous PTH-administration group, an osmotic pump (2ML2, manufactured by Alzet, Palo Alto, Calif., USA) was subcutaneously implanted into the dorsal part of each rat followed by the continuous infusion of hPTH (1-34) (manufactured by Peptide Institute Inc., Mino) in a dose of 0.4 μg/100 g body weight/day or 4 μg/100 g body weight/day. As the control groups, use was made of 2 groups including (1) one to which the vehicle was continuously infused, and (2) an intermittent administration group to which 4 μg/100 g body weight/day of PTH was subcutaneously injected into the dorsal part once a day. From the next day of the initiation of the PTH-administration, an ultra-elastic closed coil spring (509-21, manufactured by Tomy International, K.K., Tokyo) was put between the upper incisive tooth and the right first molar M1 followed by the mesial traction of M1 for 12 days (FIG. 6-A, B). After the initiation of the shifting, the precise impression of the upper jaw was taken every 3 days by using a silicone impression material (Exafine, manufactured by GC, Tokyo) and the distance between the first molar and the second molar (M2) was measured on ultra-hard gypsum models (FIG. 6-C). After the completion of shifting over 12 days, arterial blood was collected from the abdominal aorta and various serum parameters were measured. After sacrificing each rat, the upper jaw and the right thickening bone were taken out. The upper jaw was decalcificated and then cut into a paraffin section of 8 μm in thickness involving, in the direction of the major axis, the buccal mesial root and the buccal distal root followed by HE-staining and histological observation. The bone mineral content and bone mineral density of the isolated the femur were measured by dual-x-ray absorptometry (DCS-600, manufactured by Aloka, Tokyo, Japan).

The subject of assay [3] is male Wister rats. Put plainly: Histological findings of periodontium and alveolar bone in closed coil spring tooth movement. To be noted: continuous systemic infusion group.
Excerpt: as §2, with “The upper jaw was decalcificated and then cut into a paraffin section of 8 μm in thickness involving, in the direction of the major axis, the buccal mesial root and the buccal distal root followed by HE-staining and histological observation.” left out, “Japan). […]” for “Japan).”

In assay [4] the test system is male Wister rats. Put plainly: Experimental tooth movement by elastic band inserted between M1 and M2 (teeth separation), continuous PTH infusion.
Excerpt: as §1
(§3) 18 rats were divided into 4 groups including a control group having 6 animals and 3 PTH-infusion groups each having 4 animals. PTH was dissolved in a citric acid-buffered saline containing 0.05% of Tween 80 and introduced into osmotic pumps. Then these pumps were implanted in the subcutus posterior region of the neck of the rats under ether anetheia. PTH was continuously infused into the rats in doses of 1, 3 and 10 μg/100 g body weight/day and the rats were fed with a standard pelletized feed (manufactured by Oriental Yeast Co., Ltd.). To the rats of the control group, vehicles were exclusively administered. 48 hours after implanting, a piece of an elastic band (0.8 mm in thickness) was inserted between the right upper first molar and second molar (between M1 and M2) of each rat under ether anetheia in accordance with the method of Wong-Rothblatt (1954) as shown in FIG. 1(A). On day 3 of the teeth separation, the rat was sacrificed by ether-inhalation. After cutting out the upper jaw, the distance between the adjacent faces of M1 and M2 was measured with the combined use of contact gauges (manufactured by Sun Dental, Osaka) of 50, 100 and 150 μm in thickness (FIGS. 1(B) and (C)). In the case of the control group, a contact gauge of 50 μm could be inserted between M1 and M2. Thus, the interdental distance was calculated by subtracting 50 μm from the measured distance of each animal. […] The upper jaw was fixed in 4% paraformaldehyde, decalcificated in 4% formic acid and then implanted in paraffin. […] Histological examinations were all performed in the pressured side of the M1 interradicular septa and osteoclasts in the area of 300×700 μm^2 in this region were counted (FIG. 1(C)). Osteoclasts were counted based on the fact that they were large multinuclear cells having been stained with eosin and located adjacent to the bone surface. The statistic differences between the control group and the test group was evaluated in accordance with Wilcoxon's rank-sum calibration method. […]

In assay [5] the test system is osteoclasts. Put plainly: Osteoclast count in the pressured side of the M1 interradicular septa during teeth separation. To be noted: for osteoclast count in the pressured side compared with control group: 10 μg/100 g body weight/day infusion, FIG. 5. Here is the method:
as §3

Assay [6] has as its system male Wister rats. Put plainly: Histological change in pressured periodontia during teeth separation. Here is the method:
18 rats were divided into 4 groups including a control group having 6 animals and 3 PTH-infusion groups each having 4 animals. PTH was dissolved in a citric acid-buffered saline containing 0.05% of Tween 80 and introduced into osmotic pumps. Then these pumps were implanted in the subcutus posterior region of the neck of the rats under ether anetheia. PTH was continuously infused into the rats in doses of 1, 3 and 10 μg/100 g body weight/day and the rats were fed with a standard pelletized feed (manufactured by Oriental Yeast Co., Ltd.). To the rats of the control group, vehicles were exclusively administered. 48 hours after implanting, a piece of an elastic band (0.8 mm in thickness) was inserted between the right upper first molar and second molar (between M1 and M2) of each rat under ether anetheia in accordance with the method of Wong-Rothblatt (1954) as shown in FIG. 1(A). On day 3 of the teeth separation, the rat was sacrificed by ether-inhalation. After cutting out the upper jaw, the distance between the adjacent faces of M1 and M2 was measured with the combined use of contact gauges (manufactured by Sun Dental, Osaka) of 50, 100 and 150 μm in thickness (FIGS. 1(B) and (C)). In the case of the control group, a contact gauge of 50 μm could be inserted between M1 and M2. Thus, the interdental distance was calculated by subtracting 50 μm from the measured distance of each animal. […] The upper jaw was fixed in 4% paraformaldehyde, decalcificated in 4% formic acid and then implanted in paraffin. Subsequently, these preparations were cut into continuous mesiodistal sections of 8 μm in thickness and stained with hematoxylin and eosin. Histological examinations were all performed in the pressured side of the M1 interradicular septa and osteoclasts in the area of 300×700 μm^2 in this region were counted (FIG. 1(C)). Osteoclasts were counted based on the fact that they were large multinuclear cells having been stained with eosin and located adjacent to the bone surface. The statistic differences between the control group and the test group was evaluated in accordance with Wilcoxon's rank-sum calibration method. Each of the data was expressed in average±SEM. A P value less than 0.05 was regarded as being statistically significant.
32 rats were divided into 2 test groups each having 16 animals. […] To the rats of the control group, vehicles were exclusively administered. 2 days after implanting osmotic pumps, an elastic band was inserted between the right M1 and M2 of each rat. On days 0, 1, 3 and 5 of the teeth separation (i.e., on days 2, 3, 5 and 7 of the PTH infusion), the rats were sacrificed followed by the same procedures as those performed in Experiment 1.

The mark [7] stands for this setting: 1 μg/100 g body weight/day and 3 μg/100 g body weight/day groups.

With human PTH (1-34) [hPTH (1-34)], in assay [1] (after day 9), the tooth movement-promoting effect result is “more remarkable”. For the same molecule, the “mesial M1 shift” value in assay [1] (since day 3) is “tendency that the mesial M1 shift was promoted”. In addition, the tooth shift-promoting effect result in assay [2] (continuous PTH infusion group, after day 9, FIG. 10) is listed as “observed more remarkably”. In addition, the “mesial shift of M1 compared with control group” value in assay [2] (continuous PTH infusion group, FIG. 10) is recorded as “slightly significantly promoted”. Moreover, the “mesial shift of M1 relative to control group” value in assay [2] (continuous infusion of 4 μg/100 g body weight/day, day 12) is “twice”. The “mesial shift of M1” value in assay [2] (continuous infusion of 4 μg/100 g body weight/day, day 12 of tooth movement) came out at 1.01±0.09 mm. Moreover, the “shift of M1, dose dependence” value in assay [2] (continuous infusion of 0.4 or 4 μg/100 g body weight/day, day 12, FIG. 7) is “promoted depending on the dose”. In assay [2] (intermittent PTH injection group (4 μg/100 g body weight/day s.c. once a day), FIG. 10), the “mesial shift of M1 compared with control group” value is given as “slightly significantly promoted”. Further, the “M1 shifting distance compared with control group” value in assay [2] (intermittent PTH injection group, after day 6, FIG. 10) is “no significant difference”. For the same molecule, the “bone resorption in the mesial alveolar bone of M1 compared with control group” value in assay [3] is listed as “energetic bone resorption”. Moreover, in assay [3] (FIG. 16-B), the “bone resorption in the distal side of the alveolar septum” value is “remarkable bone resorption was observed over a wide range” and the “necrotic tissue in the periodontal membrane, compared with control group” value is “no such necrotic tissue”.

B1: human PTH (1-84) (protein, UniProt P01270 32-115, looked up)
Parathyroid hormone: SVSEIQLMHNLGKHLNSMERVEWLRKKLQDVHNFVALGAPLAPRDAGSQRPRKKEDNVLVESHEKSLGEADKADVNVLTKAKSQ
modifications: Parathyroid hormone
notes: recombinant human parathyroid hormone consisting of 84 amino acid residues
Take B1: the “distance between M1 and M2 compared with control group” value in assay [4] (Experiment 1, 10 μg/100 g body weight/day continuous infusion, elastic band for 3 days, FIG. 2) is listed as “significant increase”. Besides, the “teeth separation distance compared with control group” value in assay [4] (Experiment 2, 10 μg/100 g body weight/day infusion, day 1, FIG. 3) was “no significant difference”; in assay [4] (Experiment 2, 10 μg/100 g body weight/day infusion, day 3, FIG. 3) it was “significant increase”. Moreover, in assay [4] (Experiment 2, 10 μg/100 g body weight/day infusion, day 5, FIG. 3), the teeth separation entry is “almost reached the limit”. In assay [4] (continuous infusion of 1, 3 and 10 μg/100 g body weight/day, day 3 of teeth separation, FIG. 2), the “dose of PTH infusion achieving the maximum effect on teeth separation” value is 10 μg/100 g body weight/day. In addition, the “osteoclast count in the pressured side compared with control group” value in assay [5] (day 5) is on record as “no significant difference”; in assay [5] (from day 1), “significant increase”. Besides, the “osteoclast count in the pressured side of the periodontia, test groups and control group compared” value in assay [5] (1, 3 and 10 μg/100 g body weight/day infusion (all 3 test groups), elastic band for 3 days, FIG. 4) is reported as “significant increase”. Further, the “bone resorption compared with vehicle-treated rats” value in assay [6] (setting [7]) is “bone resorption seemingly arose over wider range”. Besides, the “necrotic tissue in the pressured periodontia” value in assay [6] (setting [7]) is given as “necrotic tissue was also observed”; in assay [6] (10 μg/100 g body weight/day, day 1 of teeth separation), “necrotic tissue was observed”; in assay [6] (10 μg/100 g body weight/day, day 3 of teeth separation), “no necrosis”.
